This note sets out measurements from ChEMBL document CHEMBL3632524, “3-(2,6-Dichloro-benzyloxy)-11-oxo-olean-12-ene-29-oic acid, a semisynthetic derivative of glycyrrhetic acid: synthesis, antiproliferative, apoptotic and anti-angiogenesis activity” (Medchemcomm, 2015).

Format in all cases: functional, cell-based
The nature of assay [1]: Antiproliferative activity against human MIAPaCa2 cells assessed as cell viability after 48 hrs by MTT assay. As to conditions: MIA PaCa-2, 48 h. In general terms: Tetrazolium assays rely on reduction of a dye to a coloured formazan, in cell work by metabolically active cells.
In the next assay the test system is HepG2. Nature of the assay: Antiproliferative activity against human HepG2 cells assessed as cell viability after 48 hrs by MTT assay. As to conditions: HepG2, 48 h.
The test system of another assay is PC-3. The assay can be described thus: Antiproliferative activity against human PC3 cells assessed as cell viability after 48 hrs by MTT assay. The following applies: PC-3, 48 h.

The IC50 is the concentration at which inhibition is half-maximal.

Some results are limits rather than exact numbers.

For the compound `CC[C@@]1(O)C(=O)OCc2c1cc1n(c2=O)Cc2cc3ccccc3nc2-1` [CAMPTOTHECIN], the half-inhibitory concentration (IC50) in assay [1] worked out at 0.19 µM; in the assay with HepG2, 0.2 µM.

Consider `CC(C)=CCO[C@H]1CC[C@]2(C)[C@H]3C(=O)C=C4[C@@H]5C[C@@](C)(C(=O)O)CC[C@]5(C)CC[C@@]4(C)[C@]3(C)CC[C@H]2C1(C)C`, for which the IC50 (in the assay on PC-3; in assay [1]; with HepG2) was > 20 µM each time.

For `CC1(C)[C@@H](OCc2c(F)cccc2Cl)CC[C@]2(C)[C@H]3C(=O)C=C4[C@@H]5C[C@@](C)(C(=O)O)CC[C@]5(C)CC[C@@]4(C)[C@]3(C)CC[C@@H]12`, the IC50 in the assay with PC-3 was 10 µM; in assay [1] it was 11 µM; in the assay with HepG2, > 100 µM.

Take `CC1(C)[C@@H](OCc2cccc(Cl)c2)CC[C@]2(C)[C@H]3C(=O)C=C4[C@@H]5C[C@@](C)(C(=O)O)CC[C@]5(C)CC[C@@]4(C)[C@]3(C)CC[C@@H]12`: the IC50 (in the assay with PC-3; in assay [1]; in the assay with HepG2) was > 20 µM in each case.

`CC1(C)[C@@H](OCc2ccc3c(c2)OCO3)CC[C@]2(C)[C@H]3C(=O)C=C4[C@@H]5C[C@@](C)(C(=O)O)CC[C@]5(C)CC[C@@]4(C)[C@]3(C)CC[C@@H]12`: the IC50 (with PC-3; in assay [1]; in the assay on HepG2) was > 20 µM each time.

For `CC1(C)[C@@H](OCc2ccc(C(F)(F)F)cc2C(F)(F)F)CC[C@]2(C)[C@H]3C(=O)C=C4[C@@H]5C[C@@](C)(C(=O)O)CC[C@]5(C)CC[C@@]4(C)[C@]3(C)CC[C@@H]12`, the IC50 (with PC-3; in assay [1]; in the assay with HepG2) was > 20 µM in each case.

For `CC(C)=CCC/C(C)=C\CO[C@H]1CC[C@]2(C)[C@H]3C(=O)C=C4[C@@H]5C[C@@](C)(C(=O)O)CC[C@]5(C)CC[C@@]4(C)[C@]3(C)CC[C@H]2C1(C)C`, the IC50 (in the assay with PC-3; in assay [1]; in the assay with HepG2) was > 20 µM throughout.

As for `CO[C@H]1CC[C@]2(C)[C@H]3C(=O)C=C4[C@@H]5C[C@@](C)(C(=O)O)CC[C@]5(C)CC[C@@]4(C)[C@]3(C)CC[C@H]2C1(C)C`, the IC50 (in the assay with PC-3; in assay [1]; in the assay on HepG2) was > 20 µM each time.

On to `CC1(C)[C@@H](OCc2ccc(Cl)cc2)CC[C@]2(C)[C@H]3C(=O)C=C4[C@@H]5C[C@@](C)(C(=O)O)CC[C@]5(C)CC[C@@]4(C)[C@]3(C)CC[C@@H]12`, for which the IC50 (in the assay with PC-3; in assay [1]; in the assay with HepG2) was > 20 µM in each case.

In the case of `CC1(C)[C@@H](OCc2ccc(Br)cc2)CC[C@]2(C)[C@H]3C(=O)C=C4[C@@H]5C[C@@](C)(C(=O)O)CC[C@]5(C)CC[C@@]4(C)[C@]3(C)CC[C@@H]12`, the IC50 (in the assay on PC-3; in assay [1]; with HepG2) was > 20 µM throughout.

As for `COc1ccc(CO[C@H]2CC[C@]3(C)[C@H]4C(=O)C=C5[C@@H]6C[C@@](C)(C(=O)O)CC[C@]6(C)CC[C@@]5(C)[C@]4(C)CC[C@H]3C2(C)C)cc1Br`, the IC50 (with PC-3; in assay [1]; in the assay on HepG2) was > 20 µM each time.

Consider `CC(=O)O[C@H]1C(=O)[C@@]2(C)[C@H]([C@H](OC(=O)c3ccccc3)[C@]3(O)C[C@H](OC(=O)[C@H](O)[C@@H](NC(=O)c4ccccc4)c4ccccc4)C(C)=C1C3(C)C)[C@]1(OC(C)=O)CO[C@@H]1C[C@@H]2O` [PACLITAXEL], for which the IC50 in the assay with PC-3 was 0.012 µM; in assay [1], 0.1 µM; in the assay on HepG2, > 100 µM.

As to `CC1(C)[C@@H](OCc2ccccc2I)CC[C@]2(C)[C@H]3C(=O)C=C4[C@@H]5C[C@@](C)(C(=O)O)CC[C@]5(C)CC[C@@]4(C)[C@]3(C)CC[C@@H]12`, the IC50 (in the assay on PC-3; in assay [1]; in the assay with HepG2) was > 20 µM throughout.
